Data reported in patent publication US4407815A, “β-Lactam antibacterial compounds, their preparation and pharmaceutical compositions containing them” (Beecham Group Limited, priority 1980, dated 1983).

Assays:
Assay in all cases: Minimum Inhibitory Concentration, serial dilution on DST agar
Format in all cases: cell-based
Staph. aureus Russell = settings: lactamase-producing benzylpenicillin-resistant strain, DST agar + 10% horse blood, 0.001 ml of 10^-2 dilution (Gram-positive), 37° C., 18 h; for MIC: Staphylococcus aureus
Description: (§1) ^a Determined by serial dilution on DST agar containing 10% horse
(§2) blood using an inoculum of 0.001 ml of a 10^-2 dilution for
(§3) Grampositive bacteria or a 10^-4 dilution for Gramnegative organisms.
(§4) MIC values were read after incubation at 37° C. for 18 h.
^b Lactamase-producing benzylpenicillinresistant strain.

Strep. pneumoniae = settings: DST agar + 10% horse blood, 0.001 ml of 10^-2 dilution (Gram-positive), 37° C., 18 h
Description: as §1, §2, §3, §4

B. subtilis = settings: DST agar + 10% horse blood, 0.001 ml of 10^-2 dilution (Gram-positive), 37° C., 18 h; for MIC: Bacillus subtilis
Description: as §1, §2, §3, §4

Klebsiella aerogenes = settings: DST agar + 10% horse blood, 0.001 ml of 10^-4 dilution (Gram-negative), 37° C., 18 h
Description: as §1, §2, §3, §4

E. coli = settings: DST agar + 10% horse blood, 0.001 ml of 10^-4 dilution (Gram-negative), 37° C., 18 h; for MIC: Escherichia coli
Description: as §1, §2, §3, §4

S. typhimurium = settings: DST agar + 10% horse blood, 0.001 ml of 10^-4 dilution (Gram-negative), 37° C., 18 h; for MIC: Salmonella enterica
Description: as §1, §2, §3, §4

Strep. faecalis = settings: DST agar + 10% horse blood, 0.001 ml of 10^-2 dilution (Gram-positive), 37° C., 18 h
Description: as §1, §2, §3, §4

Staph. aureus Oxford = settings: DST agar + 10% horse blood, 0.001 ml of 10^-2 dilution (Gram-positive), 37° C., 18 h; for MIC: Staphylococcus aureus
Description: as §1, §2, §3, §4

Proteus mirabilis = settings: DST agar + 10% horse blood, 0.001 ml of 10^-4 dilution (Gram-negative), 37° C., 18 h
Description: as §1, §2, §3, §4

SMILES | Minimum Inhibitory Concentration (Staph. aureus Russell) [µg/mL] | Minimum Inhibitory Concentration (Strep. pneumoniae) [µg/mL] | Minimum Inhibitory Concentration (B. subtilis) [µg/mL] | Minimum Inhibitory Concentration (Klebsiella aerogenes) [µg/mL] | Minimum Inhibitory Concentration (E. coli) [µg/mL] | Minimum Inhibitory Concentration (S. typhimurium) [µg/mL] | Minimum Inhibitory Concentration (Strep. faecalis) [µg/mL] | Minimum Inhibitory Concentration (Staph. aureus Oxford) [µg/mL] | Minimum Inhibitory Concentration (Proteus mirabilis) [µg/mL] | MIC (Staph. aureus Russell) [µg/mL] | MIC (B. subtilis) [µg/mL] | MIC (Klebsiella aerogenes) [µg/mL] | MIC (E. coli) [µg/mL] | MIC (S. typhimurium) [µg/mL] | MIC (Staph. aureus Oxford) [µg/mL] | MIC (Proteus mirabilis) [µg/mL] | MIC (Strep. pneumoniae; Streptococcus pneumoniae) [µg/mL] | MIC (Strep. faecalis; Enterococcus faecalis) [µg/mL]
COC(=O)C1=C[C@@H]2[C@H](NC(=O)[C@H](N)c3ccccc3)C(=O)N2[C@H]1C(=O)O.Cc1ccc(N)cc1 (racemic) [(48), (2RS, 5RS, 6SR) 1-Aza-3-methoxycarbonyl-6-D-α-phenylglycylamino-bicyclo-[3.2.0]-hept-3-en-7-one-2-carboxylic acid, p-toluidine salt] | > 50 | 0.5 | 1.2 | 50 | 50 | 12.5 | 12.5 | 12.5 | 25 | – | – | – | – | – | – | – | – | –
COC(=O)C1=C[C@@H]2[C@H](NC(=O)C(C(=O)OCc3ccccc3)c3ccccc3)C(=O)N2[C@H]1C(=O)O.Cc1ccc(N)cc1 (mixture of isomers) [(54), (2RS, 5RS, 6SR) 1-Aza-6-(DL-α-benzyloxycarbonyl-phenylacetamido)-3-methoxycarbonylbicyclo [3.2.0]-hept-3-en-7-one-2-carboxylic acid, p-toluidine salt] | > 100 | 10 | 25 | 100 | > 100 | 100 | > 100 | > 100 | > 100 | – | – | – | – | – | – | – | – | –
COC(=O)C1=C[C@@H]2[C@H](NC(=O)COc3ccccc3)C(=O)N2[C@H]1C(=O)O (relative stereo) [(39), (2RS, 5RS, 6SR) Sodium 1-aza-3-methoxycarbonyl-6-phenoxyacetamido-bicyclo-[3.2.0]-hept-3-en-7-one-2-carboxylate] | – | – | – | – | – | – | – | – | – | > 100 | 1 | > 100 | > 100 | > 100 | 2.5 | > 100 | – | –
N#CC1=C[C@@H]2[C@H](NC(=O)COc3ccccc3)C(=O)N2[C@H]1C(=O)O (relative stereo) [(57)] | – | – | – | – | – | – | – | – | – | 50 | 2.5 | > 50 | > 50 | > 50 | 5 | > 50 | 1.2 | > 50
